How the values were obtained:
Experiment in all cases: relative viability (nuclei count vs DMSO), 5 days (fraction); higher = more cells survive
[1] = test system: NCI-H1792
Procedure, shortened: (§1)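 The day after seeding in 1536-well plates, lung cancer cell lines were treated by pin tool with a single drug, or with a fixed anchor-drug dose together with five library-drug doses (not always all listed) in √10 steps. After 5 days, a combined fix-and-stain solution (final 0.05% Triton X-100, 1% formaldehyde, 1 ug/ml Hoechst) was added. Nuclei counted on 4× images gave relative viability as treated counts over vehicle counts, reported as the median of duplicate plates.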

[2] = test system: LOU-NH91
Procedure, shortened: as §1

[3] = test system: NCI-H1437
Procedure, shortened: as §1

[4] = test system: NCI-H2170
Procedure, shortened: as §1

[5] = test system: NCI-H23
Procedure, shortened: as §1

[6] = test system: NCI-H2023
Procedure, shortened: as §1

[7] = test system: NCI-H322M
Procedure, shortened: as §1

[8] = test system: ChaGo-K-1
Procedure, shortened: as §1

[9] = test system: NCI-H1755
Procedure, shortened: as §1

[10] = test system: HOP-62
Procedure, shortened: as §1

[11] = test system: NCI-H2009
Procedure, shortened: as §1

[12] = test system: NCI-H650
Procedure, shortened: as §1

[13] = test system: NCI-H1355
Procedure, shortened: as §1

[14] = test system: NCI-H2405
Procedure, shortened: as §1

[15] = test system: SK-MES-1
Procedure, shortened: as §1

[16] = test system: LCLC-97TM1
Procedure, shortened: as §1

[17] = test system: NCI-H441
Procedure, shortened: as §1

[18] = test system: ABC-1
Procedure, shortened: as §1

[19] = test system: RERF-LC-KJ
Procedure, shortened: as §1

[20] = test system: NCI-H727
Procedure, shortened: as §1

[21] = test system: NCI-H2085
Procedure, shortened: as §1

[22] = test system: UMC-11
Procedure, shortened: as §1

Cc1cnc(-c2cnc(NCCNc3ccc(C#N)cn3)nc2-c2ccc(Cl)cc2Cl)[nH]1 + CCNC(=O)c1noc(-c2cc(C(C)C)c(O)cc2O)c1-c1ccc(CN2CCOCC2)cc1 [Luminespib] (partner 0.01 µM)
relative viability ([1]; first compound 0.08 µM): 0.668
relative viability ([1]; first compound 0.253 µM): 0.432
relative viability ([1]; first compound 0.8 µM): 0.493
relative viability ([1]; first compound 2.53 µM): 0.392
relative viability ([2]; first compound 0.08 µM): 0.367
relative viability ([2]; first compound 0.253 µM): 0.369
relative viability ([2]; first compound 0.8 µM): 0.322
relative viability ([2]; first compound 2.53 µM): 0.376
relative viability ([3]; first compound 0.08 µM): 1.06
relative viability ([3]; first compound 0.253 µM): 1.06
relative viability ([3]; first compound 0.8 µM): 1.14
relative viability ([3]; first compound 2.53 µM): 1.14
relative viability ([4]; first compound 0.08 µM): 0.984
relative viability ([4]; first compound 0.253 µM): 0.593
relative viability ([4]; first compound 0.8 µM): 0.667
relative viability ([4]; first compound 2.53 µM): 0.655
relative viability ([5]; first compound 0.08 µM): 0.22
relative viability ([5]; first compound 0.253 µM): 0.218
relative viability ([5]; first compound 0.8 µM): 0.216
relative viability ([5]; first compound 2.53 µM): 0.209
relative viability ([6]; first compound 0.08 µM): 0.872
relative viability ([6]; first compound 0.253 µM): 0.751
relative viability ([6]; first compound 0.8 µM): 0.863
relative viability ([6]; first compound 2.53 µM): 0.774
relative viability ([7]; first compound 0.08 µM): 0.969
relative viability ([7]; first compound 0.253 µM): 0.808
relative viability ([7]; first compound 0.8 µM): 0.857
relative viability ([7]; first compound 2.53 µM): 1.03
relative viability ([8]; first compound 0.08 µM): 0.622
relative viability ([8]; first compound 0.253 µM): 0.608
relative viability ([8]; first compound 0.8 µM): 0.603
relative viability ([8]; first compound 2.53 µM): 0.538
relative viability ([9]; first compound 0.08 µM): 0.614
relative viability ([9]; first compound 0.253 µM): 0.327
relative viability ([9]; first compound 0.8 µM): 0.59
relative viability ([9]; first compound 2.53 µM): 0.385
relative viability ([10]; first compound 0.08 µM): 0.955
relative viability ([10]; first compound 0.253 µM): 0.841
relative viability ([10]; first compound 0.8 µM): 0.79
relative viability ([10]; first compound 2.53 µM): 0.738
relative viability ([11]; first compound 0.08 µM): 1.03
relative viability ([11]; first compound 0.253 µM): 0.984
relative viability ([11]; first compound 0.8 µM): 0.995
relative viability ([11]; first compound 2.53 µM): 0.975
relative viability ([12]; first compound 0.08 µM): 0.806
relative viability ([12]; first compound 0.253 µM): 0.768
relative viability ([12]; first compound 0.8 µM): 0.758
relative viability ([12]; first compound 2.53 µM): 0.76
relative viability ([13]; first compound 0.08 µM): 0.704
relative viability ([13]; first compound 0.253 µM): 0.698
relative viability ([13]; first compound 0.8 µM): 0.677
relative viability ([13]; first compound 2.53 µM): 0.744
relative viability ([14]; first compound 0.08 µM): 0.763
relative viability ([14]; first compound 0.253 µM): 0.552
relative viability ([14]; first compound 0.8 µM): 0.822
relative viability ([14]; first compound 2.53 µM): 0.574
relative viability ([15]; first compound 0.08 µM): 0.859
relative viability ([15]; first compound 0.253 µM): 0.757
relative viability ([15]; first compound 0.8 µM): 0.838
relative viability ([15]; first compound 2.53 µM): 0.921
relative viability ([16]; first compound 0.08 µM): 0.748
relative viability ([16]; first compound 0.8 µM): 0.959
relative viability ([16]; first compound 2.53 µM): 0.787
relative viability ([17]; first compound 0.08 µM): 0.409
relative viability ([17]; first compound 0.253 µM): 0.342
relative viability ([17]; first compound 0.8 µM): 0.311
relative viability ([17]; first compound 2.53 µM): 0.276
relative viability ([18]; first compound 0.08 µM): 0.591
relative viability ([18]; first compound 2.53 µM): 0.82
relative viability ([19]; first compound 0.08 µM): 1.23
relative viability ([19]; first compound 0.253 µM): 1.12
relative viability ([19]; first compound 0.8 µM): 1.27
relative viability ([19]; first compound 2.53 µM): 1.32
relative viability ([20]; first compound 0.08 µM): 0.272
relative viability ([20]; first compound 0.253 µM): 0.345
relative viability ([20]; first compound 0.8 µM): 0.362
relative viability ([20]; first compound 2.53 µM): 0.337
relative viability ([21]; first compound 0.08 µM): 0.456
relative viability ([21]; first compound 0.253 µM): 0.486
relative viability ([21]; first compound 0.8 µM): 0.462
relative viability ([21]; first compound 2.53 µM): 0.339
relative viability ([22]; first compound 0.08 µM): 1.02
relative viability ([22]; first compound 0.253 µM): 0.934
relative viability ([22]; first compound 0.8 µM): 1.03
relative viability ([22]; first compound 2.53 µM): 0.995

— the supplement of paper PMC10307832
